We go through 70 molecules from the Kinase Knowledgebase extract (Sharma et al. 2016).

For the assay, the target named is CDK2 (human) (UniProt P24941). Nature of the assay: Enzyme Assay.
One may read the Ki as the dissociation constant of the complex between target and ligand, obtained from inhibition or displacement. Lower therefore signals higher affinity. For `O=c1[nH][nH]c2cc(Nc3nc(Nc4cc(C5CC5)[nH]n4)cc(-c4ccccc4Cl)n3)ccc12`, the Ki is less than 1000 nM.
`O=c1[nH][nH]c2cc(NCC3CCCC3Nc3nccnn3)ccc12` (stereo not given) registered a Ki of less than 1000 nM.
In the case of `O=c1[nH][nH]c2cc(C(F)(F)F)c(-c3cc(Nc4n[nH]c5ccccc45)c4cccnc4n3)cc12` it was less than 1000 nM; in that of `Cc1cc(Nc2cc(C3CC3)[nH]n2)nc(Sc2ccc3c(=O)[nH][nH]c3c2)n1`, less than 1000 nM.
In the case of `COCCNC(=O)c1cc(Nc2cc(C)[nH]n2)nc(Sc2ccc3c(=O)[nH][nH]c3c2)n1` it was less than 1000 nM; in that of `O=c1[nH][nH]c2cc(Nc3nc(Nc4cc(C5CC5)[nH]n4)c4cc(N5CCCCC5)ccc4n3)ccc12`, less than 1000 nM; in that of `O=c1[nH][nH]c2cc(Cl)c(-c3cc(Nc4n[nH]c5ccccc45)c4c(n3)CCCC4)cc12`, less than 1000 nM.
In the case of `Cc1cc(Nc2cc(-c3cc4c(=O)[nH][nH]c4cc3C(F)(F)F)nc(N3CCNCC3)c2)n[nH]1`, the Ki is less than 1000 nM.
The molecule `Cn1cnc(NC2CCC(Nc3ccc4c(=O)[nH][nH]c4c3)C2)c1` (stereo not given) displayed a Ki of less than 1000 nM.
In the case of `Cn1cnc(NC2CCCC2CSc2ccc3c(=O)[nH][nH]c3c2)c1` (stereo not given) it was less than 1000 nM; in that of `O=c1[nH][nH]c2cc(Cl)c(-c3cc4c(c(Nc5n[nH]c6ccccc56)n3)CCCC4)cc12`, less than 1000 nM.
In the case of `CC(C)c1cc(Nc2nc(Nc3ccc4c(=O)[nH][nH]c4c3)nc3ccc(-c4ccccc4)cc23)n[nH]1` it was less than 1000 nM.
In the case of `Cc1cnc(NC2CCCC2COc2ccc3c(=O)[nH][nH]c3c2)s1` (stereo not given) it was less than 1000 nM.
The molecule `COCCNc1cc(Nc2cc(C)[nH]n2)nc(SCc2ccc3c(=O)[nH][nH]c3c2)n1` had a Ki of less than 1000 nM.
In the case of `Cc1cc(Nc2nc(-c3ccc4[nH][nH]c(=O)c4c3Cl)nc(C)c2C)n[nH]1` it was less than 1000 nM.
In the case of `O=C(CCOc1ccc2c(=O)[nH][nH]c2c1)Nc1cc(C2CC2)[nH]n1` it was less than 1000 nM; in that of `Cc1cc(Nc2cc(C3CC3)[nH]n2)nc(Nc2ccc3c(=O)[nH][nH]c3c2)n1`, less than 1000 nM.
In the case of `CN(C)c1nc(Nc2ccc3c(=O)[nH][nH]c3c2)nc(Nc2cc(C3CC3)[nH]n2)n1` it was less than 1000 nM; in that of `Cc1cc(Nc2cc(C(C)(C)C)nc(Sc3ccc4c(=O)[nH][nH]c4c3)n2)n[nH]1`, less than 1000 nM; in that of `O=c1[nH][nH]c2ccc(-c3nc(Nc4n[nH]c5c4CCCC5)c4ccccc4n3)c(C(F)(F)F)c12`, less than 1000 nM.
For the molecule `O=c1[nH][nH]c2cc(CCC3CCCC3Nc3ccccn3)ccc12` (stereo not given), the Ki is less than 1000 nM.
`O=c1[nH][nH]c2ccc(-c3nc(Nc4n[nH]c5c(F)cc(F)cc45)c4cc(N5CCOCC5)ccc4n3)c(C(F)(F)F)c12` registered a Ki of less than 1000 nM.
In the case of `O=c1[nH][nH]c2cc(Cl)c(-c3cc4ncccc4c(Nc4n[nH]c5ccccc45)n3)cc12` it was less than 1000 nM; in that of `O=c1[nH][nH]c2ccc(-c3nc4c(c(Nc5n[nH]c6c(F)cccc56)n3)CCCCC4)c(Cl)c12`, less than 1000 nM.
For `Cc1cnc(NC(=O)CCCc2ccc3c(=O)[nH][nH]c3c2)s1`, the Ki was less than 1000 nM.
Take `Cc1cnc(NC2CCC(Nc3ccc4c(=O)[nH][nH]c4c3)C2)s1` (stereo not given): the Ki was less than 1000 nM.
In turn, `O=c1[nH][nH]c2cc(Nc3nc(Nc4cc(C5CC5)[nH]n4)cc(-c4ccccc4)n3)ccc12` showed an inhibition constant (Ki) of less than 1000 nM.
`Cc1cc(Nc2ccnc(Nc3ccc4c(=O)[nH][nH]c4c3)c2)n[nH]1` came in with a Ki of less than 1000 nM.
In the case of `O=c1[nH][nH]c2cc(Nc3nc(Nc4cc(C5CC5)[nH]n4)cc(Oc4ccccc4)n3)ccc12`, the Ki is less than 1000 nM.
In turn, `Nc1c(Nc2ccc3c(=O)[nH][nH]c3c2)ncnc1Nc1cc(C2CC2)[nH]n1` showed a Ki of less than 1000 nM.
In the case of `O=c1[nH][nH]c2cc([C@@H]3C[C@H]3c3nc(Nc4n[nH]c5c(F)cccc45)c4ccccc4n3)ccc12` it was less than 1000 nM; in that of `Cn1cnc(NCCC(Cc2ccccc2)Oc2ccc3c(=O)[nH][nH]c3c2)c1` (stereo not given), less than 1000 nM.
`O=c1[nH][nH]c2cc(NC(CCNc3cc(C4CC4)[nH]n3)Cc3ccccc3)ccc12` (stereo not given): the Ki is less than 1000 nM.
In the case of `O=c1[nH][nH]c2ccc(-c3nnc(C4CC4)c(Nc4n[nH]c5ccccc45)n3)c(C(F)(F)F)c12` it was less than 1000 nM.
In turn, `O=C(CCNc1ccc2c(=O)[nH][nH]c2c1)Nc1ccccn1` registered a Ki of less than 1000 nM.
On to `Cc1cc(Nc2nc(Oc3ccc4c(=O)[nH][nH]c4c3)nc3ccccc23)n[nH]1`, for which the Ki was less than 1000 nM.
In the case of `CC(C)NC(=O)c1cc(Nc2nc(-c3ccc4[nH][nH]c(=O)c4c3)nc3ccccc23)n[nH]1`, the Ki was less than 1000 nM.
As for `O=c1[nH][nH]c2cc(CSc3cc(Nc4n[nH]c5ccccc45)c4ccccc4n3)ccc12`, the Ki was less than 1000 nM.
In the case of `COc1cccc2c(Nc3cc(C)[nH]n3)nc(Sc3ccc4c(=O)[nH][nH]c4c3)nc12` it was less than 1000 nM; in that of `O=c1[nH][nH]c2cc(Nc3nc(Nc4cc(C5CCCC5)[nH]n4)c4ccccc4n3)ccc12`, less than 1000 nM; in that of `O=c1[nH][nH]c2ccc(Nc3nc(Nc4cc(C5CC5)[nH]n4)c4ccccc4n3)cc12`, less than 1000 nM.
In the case of `O=c1[nH][nH]c2cc(SC3CCC(Nc4cc(C5CC5)[nH]n4)C3)ccc12` (stereo not given) it was less than 1000 nM; in that of `Cc1cc(Nc2cc(N3CCCCC3)nc(SCc3ccc4[nH][nH]c(=O)c4c3)n2)n[nH]1`, less than 1000 nM; in that of `O=c1[nH][nH]c2cc(CC(CCNc3cc(C4CC4)[nH]n3)Cc3ccccc3)ccc12` (stereo not given), less than 1000 nM.
Consider `Cc1cc(Nc2nc(-c3c(C)cc4[nH][nH]c(=O)c4c3C)nc3ccccc23)n[nH]1`, for which the Ki was less than 1000 nM.
In the case of `Cc1cc(Nc2nc(COc3ccc4c(=O)[nH][nH]c4c3)nc3c2CNCC3)n[nH]1` it was less than 1000 nM; in that of `CC(C)(C)c1cc(Nc2nc(-c3ccc4[nH][nH]c(=O)c4c3C(F)(F)F)nc3ccccc23)n[nH]1`, less than 1000 nM.
`Cc1cc(Nc2cc(-c3ccccc3)nc(Sc3ccc4c(=O)[nH][nH]c4c3)n2)n[nH]1` registered a Ki of less than 1000 nM.
With `O=c1[nH][nH]c2ccc(-c3nc4c(c(Nc5n[nH]c6c(F)cc(F)cc56)n3)CCCC4)c(C(F)(F)F)c12`, the Ki was less than 1000 nM.
Turning to `O=c1[nH][nH]c2cc(NC3CCCC(Nc4nccnn4)C3)ccc12` (stereo not given), the Ki was less than 1000 nM.
In the case of `O=c1[nH][nH]c2cc(Sc3nc(Nc4cc[nH]n4)c4ccccc4n3)ccc12` it was less than 1000 nM; in that of `O=C(NC1CC1)c1cc(Nc2nc(-c3ccc4[nH][nH]c(=O)c4c3)nc3ccccc23)n[nH]1`, less than 1000 nM; in that of `O=c1[nH][nH]c2cc(Nc3cccc(Nc4ccccn4)c3)ccc12`, less than 1000 nM.
In turn, `O=c1[nH][nH]c2ccc(-c3nc(Nc4n[nH]c5ccccc45)cc(-c4ccccc4)n3)c(C(F)(F)F)c12` gave a Ki of less than 1000 nM.
The molecule `CSc1n[nH]c(Nc2nc(Nc3ccc4c(=O)[nH][nH]c4c3)ccc2[N+](=O)[O-])n1` showed a Ki of less than 1000 nM.
In the case of `O=c1[nH][nH]c2cc(OCCONc3ccccn3)ccc12` it was less than 1000 nM; in that of `Cn1cnc(NC(=O)CCCc2ccc3c(=O)[nH][nH]c3c2)c1`, less than 1000 nM; in that of `O=c1[nH][nH]c2ccc(-c3cnnc(Nc4cc(C5CC5)[nH]n4)c3)cc12`, less than 1000 nM.
In the case of `O=c1[nH][nH]c2cc(Nc3nc(Nc4cc(C5CCC5)[nH]n4)c4ccccc4n3)ccc12` it was less than 1000 nM.
In the case of `CCc1cc(Nc2cc(C)[nH]n2)nc(C2(c3ccc4c(=O)[nH][nH]c4c3)CCC2)n1` it was less than 1000 nM; in that of `Cc1cc(Nc2nc(-c3cc4c(=O)[nH][nH]c4cc3Cl)cc3ccccc23)n[nH]1`, less than 1000 nM; in that of `Cc1cc(Nc2cc(-c3ccco3)[nH]n2)nc(COc2ccc3[nH][nH]c(=O)c3c2)n1`, less than 1000 nM.
With `Cc1cc(Nc2cc(-c3ccco3)[nH]n2)nc(COc2ccc3c(=O)[nH][nH]c3c2)n1`, the Ki is less than 1000 nM.
As to `O=c1[nH][nH]c2cc(OCC3CCCC3Nc3cc(C4CC4)[nH]n3)ccc12` (stereo not given), the Ki is less than 1000 nM.
With `O=c1[nH][nH]c2cc(Oc3cccc(Nc4n[nH]c5ccccc45)n3)ccc12`, the inhibition constant (Ki) was less than 1000 nM.
Turning to `O=C(CCNc1nccnn1)Cc1ccc2c(=O)[nH][nH]c2c1`, the Ki is less than 1000 nM.
As for `CCc1cc(Nc2cc(C)[nH]n2)nc(CSc2ccc3[nH][nH]c(=O)c3c2)n1`, the Ki was less than 1000 nM.
`O=c1[nH][nH]c2cc(Nc3nc(Nc4cc(-c5ccco5)[nH]n4)cc(-c4ccccc4)n3)ccc12`: the Ki is less than 1000 nM.
With `O=c1[nH][nH]c2ccc(C3CCCC(Nc4nccnn4)C3)cc12` (stereo not given), the Ki was less than 1000 nM.
In the case of `Cc1cccc2nc(Nc3ccc4c(=O)[nH][nH]c4c3)nc(Nc3cc(C4CC4)[nH]n3)c12` it was less than 1000 nM.
